Results on 42 compounds are retold here after ChEMBL document CHEMBL3792352, “3D-QSAR-aided design, synthesis, in vitro and in vivo evaluation of dipeptidyl boronic acid proteasome inhibitors and mechanism studies” (Bioorg Med Chem, 2016).

pIC50: −log10 of the molar value.

For orientation: pIC50 means the negative decadic logarithm of the IC50, by convention in mol/L.

Tested on in the first experiment: not listed separately
Put plainly: Cytotoxicity against human ARH77 cells assessed as cell viability after 72 hrs by CellTiter 96 aqueous one solution cell proliferation assay.
Details: not given
The experiment is classed as functional, ARH-77.
Regarding `CC(C)C[C@H](NC(=O)[C@H](Cc1ccccc1)NC(=O)c1cnccn1)B(O)O` [BORTEZOMIB], the Activity was determined as 9.57%.

With `CC(C)C[C@H](NC(=O)[C@H](Cc1ccc(C(F)(F)F)cc1)NC(=O)c1cc(Cl)ccc1Cl)B(O)O`, the Activity was 98.15%.

Tested on in the next experiment: not listed separately
Put plainly: Cytotoxicity against human U266B1 cells assessed as cell viability after 72 hrs by CellTiter 96 aqueous one solution cell proliferation assay. The experiment is classed as functional, U-266.
Details: not given
`CC(C)C[C@H](NC(=O)[C@H](Cc1ccccc1)NC(=O)c1cnccn1)B(O)O` [BORTEZOMIB]: the Activity came to 11.63%.

Turning to `CC(C)C[C@H](NC(=O)[C@H](Cc1ccc(C(F)(F)F)cc1)NC(=O)c1cc(Cl)ccc1Cl)B(O)O`, the Activity came to 100.4%.

Tested on in the next experiment: not listed separately
Put plainly: Cytotoxicity against human RPMI8226 cells assessed as cell viability after 72 hrs by CellTiter 96 aqueous one solution cell proliferation assay. The experiment is classed as functional, RPMI-8226.
Details: not given
On to `CC(C)C[C@H](NC(=O)[C@H](Cc1ccccc1)NC(=O)c1cnccn1)B(O)O` [BORTEZOMIB], for which the Activity was found to be 11.2%.

Regarding `CC(C)C[C@H](NC(=O)[C@H](Cc1ccc(C(F)(F)F)cc1)NC(=O)c1cc(Cl)ccc1Cl)B(O)O`, the Activity amounted to 233.7%.

Another experiment addresses T1, Proteasome Macropain subunit MB1 (Homo sapiens, UniProt P28074).
T1 sequence (P28074 whole entry): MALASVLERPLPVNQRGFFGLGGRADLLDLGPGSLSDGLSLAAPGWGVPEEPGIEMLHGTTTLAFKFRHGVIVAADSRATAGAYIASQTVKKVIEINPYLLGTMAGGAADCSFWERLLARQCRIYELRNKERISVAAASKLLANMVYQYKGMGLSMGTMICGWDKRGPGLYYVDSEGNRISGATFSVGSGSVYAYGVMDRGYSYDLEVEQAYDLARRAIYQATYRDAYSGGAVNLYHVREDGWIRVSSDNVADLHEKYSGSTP
Put plainly: Inhibition of chymotrypsin like activity of human 20S proteasome using Suc-Leu-Leu-Val-Tyr-AMC as substrate preincubated for 10 mins followed by substrate addition measured after 1 hr by spectrofluorimetric analysis. The settings on record: read-out: IC50.
For `CC(C)C[C@H](NC(=O)[C@H](CC(C)C)NC(=O)C1CCCc2ccccc21)B1OC2C[C@@H]3C[C@@H](C3(C)C)[C@]2(C)O1` (stereo partly drawn), the pIC50 is 7.85. The same measure, in the same setting: the same measure for `CC(C)C[C@H](NC(=O)OC(C)(C)C)C(=O)N[C@@H](Cc1ccccc1)B1OC2C[C@@H]3C[C@@H](C3(C)C)[C@]2(C)O1` (stereo partly drawn): 6.92; for `CCC(C)[C@H](NC(=O)C1CCCc2ccccc21)C(=O)N[C@@H](CC(C)C)B1OC2C[C@@H]3C[C@@H](C3(C)C)[C@]2(C)O1` (stereo partly drawn): 7.76. Same read-out and setting: the value for `CCCC[C@H](NC(=O)[C@H](Cc1ccccc1)NC(=O)[C@H]1CCCc2ccccc21)B1OC2C[C@@H]3C[C@@H](C3(C)C)[C@]2(C)O1` (stereo partly drawn) was 8.72. Same read-out and setting: the same measure for `CCCC[C@H](NC(=O)[C@H](CC(C)C)NC(=O)OC(C)(C)C)B1OC2C[C@@H]3C[C@@H](C3(C)C)[C@]2(C)O1` (stereo partly drawn): 7.31; for `CC1(C)[C@@H]2CC3OB([C@H](Cc4ccccc4)NC(=O)[C@H](Cc4ccccc4)NC(=O)[C@H]4CCCc5ccccc54)O[C@@]3(C)[C@H]1C2` (stereo partly drawn): 8.28; for `CC(C)C[C@H](NC(=O)[C@H](CC(C)C)NC(=O)c1cccc2c1CCCC2)B1OC2C[C@@H]3C[C@@H](C3(C)C)[C@]2(C)O1` (stereo partly drawn): 8.94. On to `CC(C)C[C@H](NC(=O)[C@H](Cc1cccc2ccccc12)NC(=O)c1ccc2ccccc2c1)B1OC2C[C@@H]3C[C@@H](C3(C)C)[C@]2(C)O1` (stereo partly drawn), for which the pIC50 was 8.61. Still for that read-out and setting: the value for `Cc1ccc(C[C@H](NC(=O)[C@H](Cc2ccccc2)NC(=O)C2CCc3ccccc3C2)B2OC3C[C@@H]4C[C@@H](C4(C)C)[C@]3(C)O2)cc1` (stereo partly drawn) was 8.94; that for `CCCC[C@H](NC(=O)[C@H](Cc1ccccc1)NC(C)=O)B1OC2C[C@@H]3C[C@@H](C3(C)C)[C@]2(C)O1` (stereo partly drawn) was 8.07; that for `CC(C)C[C@H](NC(=O)[C@H](Cc1ccc(C(F)(F)F)cc1)NC(=O)c1cc(Cl)ccc1Cl)B(O)O` was 8.08. Take `CC(C)C[C@H](NC(=O)[C@H](Cc1cc(C(F)(F)F)cc(C(F)(F)F)c1)NC(=O)c1cc(Cl)ccc1Cl)B(O)O`: the pIC50 was 7.60. On the same count and under the same terms, the same measure for `CC(C)(C)OC(=O)N[C@@H](Cc1ccc(O)cc1)C(=O)N[C@@H](Cc1ccccc1)B1OC2C[C@@H]3C[C@@H](C3(C)C)[C@]2(C)O1` (stereo partly drawn): 6.94; for `CC1(C)[C@@H]2CC3OB([C@H](Cc4ccc(F)cc4)NC(=O)[C@H](Cc4ccccc4)NC(=O)[C@H]4CCCc5ccccc54)O[C@@]3(C)[C@H]1C2` (stereo partly drawn): 8.90. The same measure, in the same setting: the value for `CC(C)C[C@H](NC(=O)[C@H](Cc1ccccc1)NC(=O)[C@H]1CCCc2ccccc21)B1OC2C[C@@H]3C[C@@H](C3(C)C)[C@]2(C)O1` (stereo partly drawn) was 8.95; that for `Cc1ccc(C[C@H](NC(=O)[C@H](Cc2ccccc2)NC(=O)c2cnccn2)B2OC3C[C@@H]4C[C@@H](C4(C)C)[C@]3(C)O2)cc1` (stereo partly drawn) was 8.31; that for `CC(C)C[C@H](NC(=O)[C@H](Cc1c[nH]c2ccccc12)NC(=O)OCc1ccccc1)B1OC2C[C@@H]3C[C@@H](C3(C)C)[C@]2(C)O1` (stereo partly drawn) was 7.39. Take `CC(C)C[C@H](NC(=O)[C@H](Cc1ccc2ccccc2c1)NC(=O)c1cccc2c1CCCC2)B1OC2C[C@@H]3C[C@@H](C3(C)C)[C@]2(C)O1` (stereo partly drawn): the negative-log IC50 (pIC50) is 8.94.

Consider `CC(C)C[C@H](NC(=O)[C@H](Cc1ccccc1)NC(=O)[C@@H]1CCCc2ccccc21)B1OC2C[C@@H]3C[C@@H](C3(C)C)[C@]2(C)O1` (stereo partly drawn), for which the pIC50 was 8.29.

Take `CC1(C)[C@@H]2CC3OB([C@H](Cc4ccc(F)cc4)NC(=O)[C@H](Cc4ccccc4)NC(=O)c4cnccn4)O[C@@]3(C)[C@H]1C2` (stereo partly drawn): the negative-log IC50 (pIC50) is 8.49. Still for that read-out and setting: the value for `CC(=O)N[C@@H](Cc1ccccc1)C(=O)N[C@@H](Cc1ccc(C)cc1)B1OC2C[C@@H]3C[C@@H](C3(C)C)[C@]2(C)O1` (stereo partly drawn) was 8.56.

For `CC(C)C[C@H](NC(=O)[C@H](Cc1c[nH]c2ccccc12)NC(=O)C1CCCc2ccccc21)B1OC2C[C@@H]3C[C@@H](C3(C)C)[C@]2(C)O1` (stereo partly drawn), the pIC50 was 8.44. The same measure, in the same setting: the same measure for `CC(C)C[C@H](NC(=O)[C@H](Cc1ccc(O)cc1)NC(=O)OC(C)(C)C)B1OC2C[C@@H]3C[C@@H](C3(C)C)[C@]2(C)O1` (stereo partly drawn): 7.79. The same measure, in the same setting: the value for `CC(C)C[C@H](NC(=O)[C@H](Cc1ccccc1)NC(=O)c1cnccn1)B1OC2C[C@@H]3C[C@@H](C3(C)C)[C@]2(C)O1` (stereo partly drawn) was 8.72; that for `Cc1ccc(C[C@H](NC(=O)[C@H](CC(C)C)NC(=O)OC(C)(C)C)B2OC3C[C@@H]4C[C@@H](C4(C)C)[C@]3(C)O2)cc1` (stereo partly drawn) was 6.33; that for `CC(C)C[C@H](NC(=O)[C@H](Cc1ccccc1)NC(=O)c1cccc2c1CCCC2)B1OC2C[C@@H]3C[C@@H](C3(C)C)[C@]2(C)O1` (stereo partly drawn) was 9.12. For `O=C(N[C@@H](Cc1ccccc1)C(=O)N[C@@H](Cc1ccc(F)cc1)B(O)O)c1cnccn1`, the negative-log IC50 (pIC50) was 8.36. The same measure, in the same setting: the same measure for `CC(=O)N[C@@H](Cc1ccccc1)C(=O)N[C@@H](CC(C)C)B1OC2C[C@@H]3C[C@@H](C3(C)C)[C@]2(C)O1` (stereo partly drawn): 8.63; for `Cc1cnc(C(=O)N[C@@H](Cc2ccccc2)C(=O)N[C@@H](CC(C)C)B(O)O)cn1`: 7.58; for `Cc1ccc(C[C@H](NC(=O)[C@H](Cc2c[nH]c3ccccc23)NC(=O)OCc2ccccc2)B2OC3C[C@@H]4C[C@@H](C4(C)C)[C@]3(C)O2)cc1` (stereo partly drawn): 8.48. The same measure, in the same setting: the same measure for `CC(C)C[C@H](NC(=O)[C@H](Cc1ccccc1)NC(=O)C1CCc2ccccc2C1)B1OC2C[C@@H]3C[C@@H](C3(C)C)[C@]2(C)O1` (stereo partly drawn): 8.84; for `CC(C)C[C@H](NC(=O)[C@@H](NC(=O)c1cccc2c1CCCC2)C(C)C)B1OC2C[C@@H]3C[C@@H](C3(C)C)[C@]2(C)O1` (stereo partly drawn): 8.16; for `CC(C)C[C@H](NC(=O)[C@H](Cc1ccc2ccccc2c1)NC(=O)[C@H]1CCCc2ccccc21)B1OC2C[C@@H]3C[C@@H](C3(C)C)[C@]2(C)O1` (stereo partly drawn): 8.21.

Consider `CC(C)C[C@H](NC(=O)[C@H](Cc1ccc2ccccc2c1)NC(=O)C1CCCc2ccccc21)B1OC2C[C@@H]3C[C@@H](C3(C)C)[C@]2(C)O1` (stereo partly drawn), for which the pIC50 is 8.12. On the same count and under the same terms, the same measure for `CC(C)C[C@H](NC(=O)[C@H](Cc1ccccc1)NC(=O)C1CCCc2ccccc21)B1OC2C[C@@H]3C[C@@H](C3(C)C)[C@]2(C)O1` (stereo partly drawn): 8.38; for `CC(C)C[C@H](NC(=O)[C@@H](NC(=O)C1CCCc2ccccc21)C(C)C)B1OC2C[C@@H]3C[C@@H](C3(C)C)[C@]2(C)O1` (stereo partly drawn): 7.41. As to `CC(C)C[C@H](NC(=O)[C@H](Cc1ccc(C(F)(F)F)cc1)NC(=O)c1cnccn1)B(O)O`, the pIC50 is 7.37.

Consider `CC(C)C[C@H](NC(=O)[C@H](Cc1cccc2ccccc12)NC(=O)C1CCCc2ccccc21)B1OC2C[C@@H]3C[C@@H](C3(C)C)[C@]2(C)O1` (stereo partly drawn), for which the pIC50 is 8.37. On the same count and under the same terms, the value for `CC1(C)[C@@H]2CC3OB([C@H](Cc4ccccc4)NC(=O)[C@H](Cc4ccccc4)NC(=O)C4CCc5ccccc5C4)O[C@@]3(C)[C@H]1C2` (stereo partly drawn) was 8.47; that for `Cc1ccc(C[C@H](NC(=O)[C@H](Cc2ccccc2)NC(=O)[C@H]2CCCc3ccccc32)B2OC3C[C@@H]4C[C@@H](C4(C)C)[C@]3(C)O2)cc1` (stereo partly drawn) was 8.17; that for `CC(C)C[C@H](NC(=O)[C@H](Cc1cccc2ccccc12)NC(=O)c1cccc2c1CCCC2)B1OC2C[C@@H]3C[C@@H](C3(C)C)[C@]2(C)O1` (stereo partly drawn) was 8.87.

The experiment is the same for the next values; noted with them: read-out: pIC50 (converted).
With `CC(C)C[C@H](NC(=O)[C@H](Cc1ccccc1)NC(=O)c1cccc2c1CCCC2)B1OC2C[C@@H]3C[C@@H](C3(C)C)[C@]2(C)O1` (stereo partly drawn), the IC50 is 1.32 nM.
